Reference: patent US7196077B2, “Tachykinin antagonists” (Glaxo Group Limited, priority 2001, dated 2007)
Structures can show the parent of a compound that is named as a salt.

Each compound was assayed against T1, recombinant human NK1 receptors (Homo sapiens, UniProt P25103) (assay: NK1-receptor binding affinity, displacement of [3H]-substance P). Conditions: negative logarithm of Ki; displacement of [3H]-substance P from recombinant human NK1 receptors in CHO cell membranes; average of at least two determinations.
T1 construct: expressed in transfected cells; host or cells: Chinese Hamster Ovary (CHO) cells, membrane preparation
Protocol: NK1-receptor binding affinity has been determined in vitro by the compounds' ability to displace [3H]-substance P (SP) from recombinant human NK1 receptors expressed in Chinese Hamster Ovary (CHO) cell membranes.
CHO cell membranes were prepared by using a modification of the method described by Dam T and Quirion R (Peptides, 7: 855–864, 1986). Thus ligand binding was performed in 0.4 mL of 50 mM HEPES, pH 7.4, containing 3 mM MnCl2, 0.02% BSA, 0.5 nM [^3H]-Substance P (30÷56 Ci/mmol, Amersham), a final membrane concentration of 25 μg of protein/ml, and the test compounds. The incubation proceeded at room temperature for 40 min. Non-specific binding was determined using excess of Substance P (1 μM) and represents about 6% of the total binding.
The affinity of the compound of the invention for NK1 receptor was determined using the NK1-receptor binding affinity method measuring in vitro by the compounds' ability to displace [3H]-substance P (SP) from recombinant human NK1 receptors expressed in Chinese Hamster Ovary (CHO) cell membranes. The affinity values are expressed as negative logarithm of the inhibition constant (Ki) of displacer ligands (pKi).

T1 sequence (P25103 whole entry): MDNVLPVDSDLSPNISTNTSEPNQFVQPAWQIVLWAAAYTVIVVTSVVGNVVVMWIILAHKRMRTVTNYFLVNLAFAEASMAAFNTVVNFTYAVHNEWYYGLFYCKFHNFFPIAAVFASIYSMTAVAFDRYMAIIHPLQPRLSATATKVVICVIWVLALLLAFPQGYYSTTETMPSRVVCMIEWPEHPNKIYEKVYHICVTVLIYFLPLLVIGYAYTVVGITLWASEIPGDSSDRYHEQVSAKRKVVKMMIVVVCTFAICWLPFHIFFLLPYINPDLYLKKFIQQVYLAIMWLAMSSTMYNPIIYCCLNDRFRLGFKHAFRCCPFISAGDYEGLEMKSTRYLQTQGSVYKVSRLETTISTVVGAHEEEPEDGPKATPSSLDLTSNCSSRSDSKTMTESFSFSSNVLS

SMILES	Ki [pM]
Cc1cc(F)ccc1[C@H]1CCNCCN1C(=O)N(C)Cc1cc(C(F)(F)F)cc(C(F)(F)F)c1 [Example 2, 7-(R)-(4-Fluoro-2-methyl-phenyl)-[1,4]-diazepane-1-carboxylic acid, (3,5-bis-trifluoromethyl-benzyl)-methylamide hydrochloride]	72.4
Cc1cc(F)ccc1[C@H]1CCNCCN1C(=O)N(C)Cc1cc(Cl)cc(Cl)c1 [Example 6, 7-(R)-(4-Fluoro-2-methyl-phenyl)-[1,4]-diazepane-1-carboxylic acid, (3,5-dichloro-benzyl)-methylamide hydrochloride]	97.7
Cc1cc(F)ccc1[C@H]1CCN(C)CCN1C(=O)N(C)Cc1cc(C(F)(F)F)cc(C(F)(F)F)c1 [Example 14, 7-(R)-(4-Fluoro-2-methyl-phenyl)-4-methyl-[1,4]-diazepane-1-carboxylic acid, (3,5-bis-trifluoromethyl-benzyl)-methylamide hydrochloride]	56.2
Cc1cc(F)ccc1[C@H]1CCN(C)CCN1C(=O)N(C)Cc1cc(Cl)cc(Cl)c1 [Example 13, 7-(R)-(4-Fluoro-2-methyl-phenyl)-4-methyl-[1,4]-diazepane-1-carboxylic acid, (3,5-dichloro-benzyl)-methylamide hydrochloride]	295
Cc1cc(F)ccc1[C@H]1CNCCCN1C(=O)N(C)Cc1cc(Cl)cc(Cl)c1 [Example 5, 2-(S)-(4-Fluoro-2-methyl-phenyl)-[1,4]-diazepane-1-carboxylic acid, (3,5-dichloro-benzyl)-methylamide hydrochloride]	66.1
CN(Cc1cc(C(F)(F)F)cc(C(F)(F)F)c1)C(=O)N1CCCNC[C@@H]1c1ccc(F)cc1 [Example 12a, 2-(S)-(4-Fluoro-phenyl)-[1,4]-diazepane-1-carboxylic acid, (3,5bis-trifluoromethyl-benzyl)-methylamide hydrochloride]	501

The next compounds have a lower Ki than those just listed; values first:

Ki [pM]	SMILES
47.9	Cc1cc(F)ccc1[C@H]1CNCCCN1C(=O)N(C)[C@@H](C)c1cc(C(F)(F)F)cc(C(F)(F)F)c1 [Example 7, 2-(S)-(4-Fluoro-2-methyl-phenyl)-[1,4]-diazepane-1-carboxylic acid, [1-(S)-(3,5-bis-trifluoromethyl-phenyl)-ethyl]-methylamide hydrochloride]
45.7	Cc1cc(F)ccc1[C@H]1CCNCCN1C(=O)N(C)[C@@H](C)c1cc(C(F)(F)F)cc(C(F)(F)F)c1 [Example 8, 7-(R)-(4-Fluoro-2-methyl-phenyl)-[1,4]-diazepane-1-carboxylic acid, [1-(S)-(3,5-bis-trifluoromethyl-phenyl)-ethyl]-methylamide hydrochloride]
34.7	Cc1cc(F)ccc1[C@H]1CNCCCN1C(=O)N(C)Cc1cc(C(F)(F)F)cc(C(F)(F)F)c1 [Example 1, 2-(S)-(4-Fluoro-2-methyl-phenyl)-[1,4]-diazepane-1-carboxylic acid, (3,5-bis-trifluoromethyl-benzyl)-methylamide hydrochloride]
30.9	Cc1cc(F)ccc1[C@H]1CCN(C)CCN1C(=O)N(C)[C@H](C)c1cc(C(F)(F)F)cc(C(F)(F)F)c1 [Example 15, 7-(R)-(4-Fluoro-2-methyl-phenyl)-4-methyl-[1,4]-diazepane-1-carboxylic acid, [1-(R)-(3,5-bis-trifluoromethyl-phenyl)-ethyl]-methylamide hydrochloride.]
24.5	Cc1cc(F)ccc1[C@H]1CNCCCN1C(=O)N(C)[C@H](C)c1cc(C(F)(F)F)cc(C(F)(F)F)c1 [Example 3, 2-(S)-(4-Fluoro-2-methyl-phenyl)-[1,4]-diazepane-1-carboxylic acid, [1-(R)-(3,5-bis-trifluoromethyl-phenyl)-ethyl]-methylamide hydrochloride]
19.5	Cc1cc(F)ccc1[C@H]1CCNCCN1C(=O)N(C)[C@H](C)c1cc(C(F)(F)F)cc(C(F)(F)F)c1 [Example 4, 7-(R)-(4-Fluoro-2-methyl-phenyl)-[1,4]-diazepane-1-carboxylic acid, [1-(R)-(3,5-bis-trifluoromethyl-phenyl)-ethyl]-methylamide hydrochloride]
